{
  "source": "patent US5563176A",
  "about": "(priority 1994, dated 1996)",
  "key": {"KB C-1 (gp170+) cells": {"test_system": "KB C-1 (gp170+) cells", "experiment": "sensitivity of mdr lines, KB C-1", "type": "cell-based", "conditions": "KBC-1"}, "[1]": {"test_system": "MDA-231 parent (Breast) cells", "experiment": "sensitivity of mdr lines, MDA-231 parent", "type": "cell-based", "conditions": "Homo sapiens, MDA-MB-231"}, "[2]": {"test_system": "human lung adenocarcinoma MV522", "conditions": "in vivo"}, "242, melanoma": {"test_system": "242, melanoma", "experiment": "inhibition of thymidine incorporation after two hour exposure, 242", "type": "cell-based", "conditions": "2 h; Table 1; 242, two hour exposure", "procedure": "(§1) To assess cytotoxic effects, various concentrations of illudins were added to cultures of cells for 48 hours, then cell growth/viability was determined by trypan blue exclusion. As an alternative to 48 hour continuous exposure studies, cells were plated in liquid culture in 96 well plates, exposed to various concentrations of illudins for 2 hours, pulsed with [^3 H]-thymidine for one to two hours and harvested onto glass filters. The filter papers were added to vials containing scintillation fluid and residual radioactivity determined in a beta (scintillation) counter.\n(§2) two hour exposure to the toxins (N - 3)."}, "tolerability in mice": {"experiment": "tolerability in mice", "conditions": "for MTD at 672 h: mouse, in vivo"}, "L1210": {"test_system": "L1210", "experiment": "zone of inhibition / colony formation, L1210"}, "MV522": {"test_system": "MV522", "experiment": "cells", "type": "cell-based", "conditions": "Homo sapiens, MV522, 48 h, read-out: 48 hour IC50"}, "[3]": {"experiment": "kinetics of the reaction with dilute HCl", "type": "physicochemical", "conditions": "dehydroilludin M", "excerpt": "Consistent with the above hypothesis are the results of the kinetics of the reaction of illudin M and dehydroilludin M with dilute HCl. […] In the reaction with dehydroilludin M, no intermediate could be detected by NMR spectroscopy. Presumably it formed too slowly and is too short-lived to be detected."}, "HL-60 parent cells": {"test_system": "HL-60 parent cells", "experiment": "sensitivity of mdr lines, HL-60 parent", "type": "cell-based", "conditions": "Homo sapiens"}, "8392 cells (B-cell)": {"test_system": "8392 cells (B-cell)", "experiment": "cells", "type": "cell-based", "conditions": "2 h"}, "547, ovarian": {"test_system": "547, ovarian", "experiment": "inhibition of thymidine incorporation after two hour exposure, 547", "type": "cell-based", "conditions": "2 h; Table 1; 547, two hour exposure", "procedure": "as §1, §2"}, "MV522 cells": {"test_system": "MV522 cells", "experiment": "cells", "type": "cell-based, human", "conditions": "Homo sapiens, MV522, 2 h, read-out: Two hour IC50"}, "HL60 cells": {"test_system": "HL60 cells", "experiment": "cells", "type": "cell-based", "conditions": "Homo sapiens, HL-60, 48 h, read-out: 48 hour IC50"}, "8392 cells": {"test_system": "8392 cells", "experiment": "cells", "type": "cell-based", "conditions": "48 h, read-out: 48 hour IC50"}, "L1210 cells": {"test_system": "L1210 cells", "experiment": "L1210 in vivo, increased life span", "procedure": "In collaboration, the in vivo effects of dehydroilludin M was again studied. Initially the compound was studied against L1210 cells. […] The dehydroilludin M was then administered as a 24 hour infusion (5.0 mg/kg); the ILS was 11%. After we became aware of the presence of the energy-dependent uptake in human myelocytic cells, dehydroilludin M was screened for in vivo efficacy against a syngeneic mouse AML model using C1498 cells and a single bolus of […], 2.5 mg/kg IP, produced an ILS of 35%."}, "L1210 BCNU cells": {"test_system": "L1210 BCNU cells", "experiment": "sensitivity of mdr lines, L1210 BCNU", "type": "cell-based", "conditions": "Mus musculus"}, "[4]": {"test_system": "MCF7-wt parent (Breast) cells", "experiment": "sensitivity of mdr lines, MCF7-wt parent", "type": "cell-based", "conditions": "Homo sapiens; MCF7-wt Parent; read-out: Sensitivity of mdr lines"}, "8402, T-cell": {"test_system": "8402, T-cell", "experiment": "inhibition of thymidine incorporation after two hour exposure, 8402", "type": "cell-based", "conditions": "2 h, Table 1, 8402, two hour exposure", "procedure": "as §1, §2"}, "[5]": {"test_system": "MCF7 ADR (GSH-transferase) cells", "experiment": "cells", "type": "cell-based", "conditions": "Homo sapiens, NCI/ADR-RES, read-out: Sensitivity of mdr lines"}, "[6]": {"test_system": "L1210 CPA (cyclophos) cells", "experiment": "sensitivity of mdr lines, L1210 CPA", "type": "cell-based", "conditions": "Mus musculus"}, "HL-60 ADR (gp150+) cells": {"test_system": "HL-60 ADR (gp150+) cells", "experiment": "sensitivity of mdr lines, HL-60 ADR", "type": "cell-based", "conditions": "Homo sapiens, HL60/ADR"}, "SL-2, murine (thymic)": {"test_system": "SL-2, murine (thymic)", "experiment": "inhibition of thymidine incorporation after two hour exposure, SL-2", "type": "cell-based", "conditions": "Mus musculus, 2 h; Table 1; SL-2, two hour exposure", "procedure": "as §1, §2"}, "HL60 cells (myeloid)": {"test_system": "HL60 cells (myeloid)", "experiment": "cells", "type": "cell-based, human", "conditions": "Homo sapiens, HL-60, 2 h"}, "[7]": {"test_system": "MDA-231 3-1 (gp170+) cells", "experiment": "sensitivity of mdr lines, MDA-231 3-1", "type": "cell-based", "conditions": "Homo sapiens, MDA-MB-231"}, "MDA-231, breast": {"test_system": "MDA-231, breast", "experiment": "cells", "type": "cell-based", "conditions": "Homo sapiens, MDA-MB-231, 2 h"}, "[8]": {"test_system": "SL-2 leukemia/lymphoma cells", "experiment": "SL-2 syngeneic model, increased life span", "type": "in vivo, murine", "procedure": "The efficacy of dehydroilludin M was then screened in a syngeneic model using murine SL-2 cells. SL-2 leukemia/lymphoma cells are injected subcutaneously and metastasized to lymph nodes, spleen, and lungs, and drug efficacy in this model is determined by increased life span (ILS). The SL-2 cells were administered at 2.5 million cells per animal and treatment was delayed. for 7 days until the tumors were palpable. Ibis is a relatively stringent test .against established tumors and contrasts to general drug screens in the SL-2 model which normally use only 0.5 million cells and starting drug treatment at 3 days. […] When administered IV at 0.03 mg/kg, twice a week, the ILS increased to 38%."}, "HL-60 cells": {"test_system": "HL-60 cells", "experiment": "cells", "type": "cell-based, human"}, "KB parent cells": {"test_system": "KB parent cells", "experiment": "sensitivity of mdr lines, KB parent", "type": "cell-based"}, "[9]": {"test_system": "L1210 DDPt (cis-plat) cells", "experiment": "sensitivity of mdr lines, L1210 DDPt", "type": "cell-based", "conditions": "Mus musculus"}, "MCF-7, breast": {"test_system": "MCF-7, breast", "experiment": "cells", "type": "cell-based, human", "conditions": "Homo sapiens, MCF7, 2 h"}},
  "note": "Read-outs that look alike come from different tables or passages of the source.",
  "data": [
    {"smiles": "CC1=C2C(=O)C(C)(C)C=C2C(=O)[C@](C)(O)C12CC2", "note": "[Dehydroilludin M]", "values": [
      {"measurement": "IC50", "setting": "KB C-1 (gp170+) cells", "result": "80 ± 18", "unit": "nM"},
      {"measurement": "IC50", "setting": "[1]", "result": "54 ± 7", "unit": "nM"},
      {"measurement": "efficacy in this model", "setting": "[2]", "result": "markedly increased the lifespan"},
      {"measurement": "IC50", "setting": "242, melanoma", "result": "> 38000", "unit": "nM"},
      {"measurement": "toxicity to mice", "setting": "tolerability in mice; 60,000 μg/kg IP twice a week", "result": "nontoxic"},
      {"measurement": "MTD at 672 h", "setting": "tolerability in mice; ip", "result": 60, "unit": "mg/kg"},
      {"measurement": "MTD at 672 h", "setting": "tolerability in mice; iv", "result": 1, "unit": "mg/kg"},
      {"measurement": "Zone Size", "setting": "L1210; L1210, dilution 1/25", "result": 400},
      {"measurement": "Zone Size", "setting": "L1210; L1210, dilution 1/125", "result": 200},
      {"measurement": "Zone Size", "setting": "L1210; L1210, dilution 1/125 (repeat)", "result": 300},
      {"measurement": "Zone Size", "setting": "L1210; L1210, dilution 1/625", "result": 100},
      {"measurement": "IC50", "setting": "MV522", "result": "313 ± 23", "unit": "nM"},
      {"measurement": "half-life", "setting": "[3]", "result": 46.1, "unit": "h"},
      {"measurement": "k, first-order reaction", "setting": "[3]", "result": "2×10^-4 min^1"},
      {"measurement": "IC50", "setting": "HL-60 parent cells", "result": "163 ± 11", "unit": "nM"},
      {"measurement": "IC50", "setting": "8392 cells (B-cell)", "result": "> 38000", "unit": "nM"},
      {"measurement": "IC50", "setting": "8392 cells (B-cell); read-out: Two hour IC50", "result": 61300, "unit": "nM"},
      {"measurement": "IC50", "setting": "547, ovarian", "result": "> 38000", "unit": "nM"},
      {"measurement": "IC50", "setting": "MV522 cells", "result": 1830, "unit": "nM"},
      {"measurement": "IC50", "setting": "HL60 cells", "result": "296 ± 66", "unit": "nM"},
      {"measurement": "IC50", "setting": "8392 cells", "result": "269 ± 100", "unit": "nM"},
      {"measurement": "ILS", "setting": "L1210 cells; 2.5 mg/kg IP daily for 5 days", "result": 9, "unit": "%"},
      {"measurement": "ILS", "setting": "L1210 cells; 24 hour infusion (5.0 mg/kg)", "result": 11, "unit": "%"},
      {"measurement": "IC50", "setting": "L1210 BCNU cells", "result": "100 ± 31", "unit": "nM"},
      {"measurement": "IC50", "setting": "[4]", "result": "92 ± 15", "unit": "nM"},
      {"measurement": "IC50", "setting": "8402, T-cell", "result": "> 38000", "unit": "nM"},
      {"measurement": "IC50", "setting": "[5]", "result": "68 ± 15", "unit": "nM"},
      {"measurement": "IC50", "setting": "[6]", "result": "38 ± 15", "unit": "nM"},
      {"measurement": "IC50", "setting": "HL-60 ADR (gp150+) cells", "result": "191 ± 44", "unit": "nM"},
      {"measurement": "IC50", "setting": "SL-2, murine (thymic)", "result": 5240, "unit": "nM"},
      {"measurement": "IC50", "setting": "HL60 cells (myeloid)", "result": "246 ± 19", "unit": "nM"},
      {"measurement": "IC50", "setting": "HL60 cells (myeloid); read-out: Two hour IC50", "result": "377 ± 81", "unit": "nM"},
      {"measurement": "IC50", "setting": "[7]", "result": "58 ± 11", "unit": "nM"},
      {"measurement": "IC50", "setting": "MDA-231, breast", "result": "112 ± 17", "unit": "nM"},
      {"measurement": "ILS", "setting": "[8]; 0.03 mg/kg IV twice a week", "result": 38, "unit": "%"},
      {"measurement": "ILS", "setting": "[8]; 30 mg/kg IP twice a week", "result": 5, "unit": "%"},
      {"measurement": "ILS", "setting": "[8]; 60 mg/kg IP twice a week", "result": 18, "unit": "%"},
      {"measurement": "toxicity to HL-60 cells", "setting": "HL-60 cells", "result": "less toxic"},
      {"measurement": "IC50", "setting": "KB parent cells", "result": "125 ± 14", "unit": "nM"},
      {"measurement": "IC50", "setting": "[9]", "result": "119 ± 39", "unit": "nM"},
      {"measurement": "IC50", "setting": "MCF-7, breast", "result": "653 ± 65", "unit": "nM"}
    ]}
  ]
}
